Test results reported in patent US12478613B2, “Selective MAO-B inhibitor DRG-MAOB-2 for use in treatment of neurodegenerative diseases” (BAHCESEHIR UNIVERSITESI, priority 2020, dated 2025).

What was measured:
human MAO-B = target: T1, human MAO-B (Homo sapiens, UniProt P27338); experiment: MAO inhibitory assay (kynuramine, fluorescence), MAO-B; assay type: biochemical
T1 sequence (P27338 1-520): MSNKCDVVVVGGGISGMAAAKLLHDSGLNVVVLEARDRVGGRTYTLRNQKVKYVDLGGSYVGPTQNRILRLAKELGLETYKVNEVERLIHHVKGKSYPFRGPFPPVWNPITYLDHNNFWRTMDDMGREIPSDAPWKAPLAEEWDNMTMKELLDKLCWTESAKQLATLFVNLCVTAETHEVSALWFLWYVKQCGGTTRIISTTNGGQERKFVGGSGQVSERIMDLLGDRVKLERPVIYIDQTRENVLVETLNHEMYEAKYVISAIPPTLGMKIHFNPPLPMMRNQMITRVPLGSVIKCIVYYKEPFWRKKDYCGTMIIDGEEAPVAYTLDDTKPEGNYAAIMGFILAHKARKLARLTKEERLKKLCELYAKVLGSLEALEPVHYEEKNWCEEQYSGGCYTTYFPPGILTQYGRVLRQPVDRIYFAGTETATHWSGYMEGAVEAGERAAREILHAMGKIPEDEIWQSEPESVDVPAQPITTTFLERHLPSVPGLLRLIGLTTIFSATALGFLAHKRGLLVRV
Method: (§1) MAO inhibitory activity was assayed using the method of Novaroli et al. with minor modifications. Briefly, 140 μL of 0.1 M potassium phosphate buffer (pH 7.4), 8 μL of 0.75 mM kynuramine, and 2 μL of a dimethyl sulfoxide (DMSO) inhibitor solution (final DMSO concentration of 1% (v/v) and final concentrations of the inhibitors of 0-1 μM), were preincubated at 37° C. for 10 min. Diluted human recombinant enzyme (50 μL) was then added to obtain a final protein concentration of 0.0075 mg/mL (MAO-A) or 0.015 mg/mL (MAO-B) in the assay mixture. The reaction mixture was further incubated at 37° C. and the reaction was stopped after 20 min by the addition of 75 μL of 2 M NaOH. The product generated by MAO, 4-quinolinol, is fluorescent and was measured at Ex 310 nm/Em 400 nm using a microplate reader (Thermo Scientific-Multiskan GO). Each data points of samples were triplicate. The sample solution was replaced with DMSO to provide a negative control.

human MAO-A = target: T2, human MAO-A (Homo sapiens, UniProt P21397); experiment: MAO inhibitory assay (kynuramine, fluorescence), MAO-A; assay type: biochemical; details: human recombinant enzyme, kynuramine substrate, 37° C., pH 7.4
T2 sequence (P21397 1-527): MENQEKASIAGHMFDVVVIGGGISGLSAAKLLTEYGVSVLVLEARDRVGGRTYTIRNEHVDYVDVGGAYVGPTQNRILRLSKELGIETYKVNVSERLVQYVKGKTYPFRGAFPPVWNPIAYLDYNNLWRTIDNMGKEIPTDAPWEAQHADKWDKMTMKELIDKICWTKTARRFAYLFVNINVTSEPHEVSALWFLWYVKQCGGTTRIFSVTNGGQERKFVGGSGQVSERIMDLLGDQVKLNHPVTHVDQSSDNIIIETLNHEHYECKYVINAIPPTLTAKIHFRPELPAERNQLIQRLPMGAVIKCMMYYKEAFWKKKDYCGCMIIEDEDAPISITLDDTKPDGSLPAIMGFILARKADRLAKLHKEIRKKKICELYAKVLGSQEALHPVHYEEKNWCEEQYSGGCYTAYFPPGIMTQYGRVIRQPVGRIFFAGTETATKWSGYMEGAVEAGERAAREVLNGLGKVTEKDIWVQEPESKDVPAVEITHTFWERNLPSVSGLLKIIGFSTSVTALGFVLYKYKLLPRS
Method: as §1

## COc1ccc(-c2cc(C(=O)NCCn3cnc4ccccc43)n[nH]2)cc1OC [compound of formula I]
Human MAO-B; human recombinant enzyme, kynuramine substrate, 37° C., pH 7.4
  IC50: 3.22 ± 0.02 nM
Human MAO-B; ratio of IC50 MAO-A / MAO-B
  fold more potent binding to MOA-B compared to MOA-A: approximately 9 fold
Human MAO-A
  IC50: 29.5 ± 1.1 nM
